Results published in PubChem BioAssay (NCI).
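Following 48 hours of exposure in 96-well plates, responses at five concentrations were used to interpolate endpoints linearly. TGI: total growth inhibition.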

Key:
Assay in all cases: NCI anticancer screen, dose series, 48 h
SN12C renal = tested on: SN12C renal
SF-295 CNS = tested on: SF-295 CNS
OVCAR-8 ovarian = tested on: OVCAR-8 ovarian
M14 melanoma = tested on: M14 melanoma
SK-MEL-28 melanoma = tested on: SK-MEL-28 melanoma
OVCAR-5 ovarian = tested on: OVCAR-5 ovarian
HT29 colon = tested on: HT29 colon
NCI-H522 lung = tested on: NCI-H522 lung
HS 578T breast = tested on: HS 578T breast
HOP-92 NSCLC = tested on: HOP-92 NSCLC
MCF7 breast = tested on: MCF7 breast
HCT-15 colon = tested on: HCT-15 colon
MDA-N = tested on: MDA-N
NCI/ADR-RES ovarian = tested on: NCI/ADR-RES ovarian
A549 NSCLC = tested on: A549 NSCLC
MALME-3M melanoma = tested on: MALME-3M melanoma
DU-145 prostate = tested on: DU-145 prostate
HCC-2998 colon = tested on: HCC-2998 colon
A498 renal = tested on: A498 renal
MDA-MB-231 breast = tested on: MDA-MB-231 breast

Row | Compound | TGI (SN12C renal) [µM] | TGI (SF-295 CNS) [µM] | TGI (OVCAR-8 ovarian) [µM] | TGI (M14 melanoma) [µM] | TGI (SK-MEL-28 melanoma) [µM] | TGI (OVCAR-5 ovarian) [µM] | TGI (HT29 colon) [µM] | TGI (NCI-H522 lung) [µM] | TGI (HS 578T breast) [µM] | TGI (HOP-92 NSCLC) [µM] | TGI (MCF7 breast) [µM] | TGI (HCT-15 colon) [µM] | TGI (MDA-N) [µM] | TGI (NCI/ADR-RES ovarian) [µM] | TGI (A549 NSCLC) [µM] | TGI (MALME-3M melanoma) [µM] | TGI (DU-145 prostate) [µM] | TGI (HCC-2998 colon) [µM] | TGI (A498 renal) [µM] | TGI (MDA-MB-231 breast) [µM]
1 | CN(C)CCN(C(=Nc1ccccc1)N1CCCC1)c1ccccc1 | > 100 | > 100 | > 100 | > 100 | > 100 | > 100 | 92.4 | > 100 | > 100 | > 100 | > 100 | > 100 | 86.6 | > 100 | > 100 | > 100 | > 100 |  |  | 
2 | C[N+](C)=c1nc(N2CCc3ccccc3C2)ss1 | > 100 |  | > 100 | > 100 | > 100 |  |  | > 100 |  |  |  | > 100 |  |  | > 100 | > 100 |  | > 100 | > 100 | 
3 | O=C(N/N=C\C(F)(F)F)c1ccncc1 | > 100 | > 100 | > 100 | > 100 | > 100 | > 100 | > 100 |  | > 100 | > 100 | > 100 | > 100 |  | > 100 |  | > 100 | > 100 | > 100 | > 100 | 
4 | NCc1cc(O)c(O)c(O)c1 | > 100 | > 100 | > 100 | > 100 | > 100 | > 100 | > 100 | > 100 |  | > 100 |  | > 100 |  |  | > 100 | > 100 |  |  | > 100 | 
5 | Cc1ccc(S(=O)(=O)NCCCSCCSCCCN)cc1 | > 100 | > 100 | > 100 | > 100 | > 100 |  | > 100 | > 100 | > 100 | > 100 | > 100 | > 100 | > 100 | > 100 | > 100 |  | > 100 | > 100 | > 100 | > 100
6 | COC(=O)C1=C(C)N2CCOC2CC1c1ccccc1 (configuration not stated) |  | > 100 | > 100 | > 100 | > 100 |  | > 100 |  |  | > 100 |  |  |  |  | > 100 |  |  | > 100 |  | 
7 | CCN(CC)CCN(C(=O)c1ccc(F)cc1)c1ccccc1N | > 10 | > 10 | > 10 | > 10 | > 10 | > 10 | > 10 | > 10 | > 10 |  | > 10 | > 10 | > 10 | > 10 | > 10 | > 10 | > 10 | > 10 | > 10 | > 10
8 | C/C(=N\NC(=S)NCc1ccccc1)c1nc2ncccc2[nH]1 | > 100 | 22.8 | 26.8 | 19.8 | 37.4 | 30.2 | 12.8 | 32 | > 100 | 22.5 | 16.2 | 37.2 | 26.8 | 78.8 | > 100 | 34.6 | 24.5 | 68.4 | 50 | 90.2
9 | Cc1ccc(S(=O)(=O)NNC2Oc3cc4c(cc3C(c3ccccc3O)C2C)OCO4)cc1 (configuration not stated) | 30.5 | 24.4 |  | 26.2 | 30.1 | 30.5 | 27.6 | 27.3 | 29.5 | 31.7 | 35.2 | 32 | 27 |  | 26.8 | 25.9 | 29.2 | 32.6 | 30.7 | 31.4
10 | COc1cc(C(=O)Nc2cc(C(N)=O)cc(OC)c2OC)cc(NC(=O)/C=C/c2ccccc2)c1OC | 85.6 | > 100 | > 100 |  | > 100 | > 100 | > 100 | > 100 |  | > 100 | > 100 | > 100 | > 100 | > 100 | > 100 | 64 | > 100 |  |  | 57.5
11 | CNCCC=C1c2ccccc2CCc2ccccc21 | 29.2 | 27.8 | 31.7 | 14.7 | 27 | 30.2 | 16.1 | 29.2 | 51.1 | 28.8 | 30.4 | 32.3 | 29 | 30.4 | 32.1 | 30.3 | 28.8 |  | 28.9 | > 51.9
12 | O=C(CCN1CCOCC1)C(=Cc1ccccc1)C(=O)CCN1CCOCC1 | 7.45 | 29.1 | 9.88 |  | 5.64 | 33.6 | 8.35 | 2.85 |  | 4.06 | 13.4 | 4.74 |  | 13.9 | 35.8 | 4.64 |  | 26.9 | 31.4 | 
13 | COc1cc2oc(=O)ccc2cc1CC=C(C)C | > 100 | > 100 | > 100 |  | > 100 | > 100 | 77.7 | > 100 | > 100 | 69 | > 100 |  | > 100 | 79.3 | > 100 | > 100 | > 100 | > 100 | > 100 | > 100
